The numbers were not newly measured in patent US20040197397A1, “Drug delivery system for treatment of urinary incontinence” (Watson Pharmaceuticals, Inc., priority 2002, published 2004), which cites them from elsewhere.

As a reminder, the pKa is the negative logarithm of the acid dissociation constant.

For the data set the following is noted: free base.

As to `CCN(CC)CC#CCOC(=O)C(O)(c1ccccc1)C1CCCCC1` (stereo not shown) [Oxybutynin free base, Oxybutynin], the pKa is 10.3.
